Laboratory results reported in ChEMBL document CHEMBL5260810, “Inhibition of bromodomain-containing protein 9 for the prevention of epigenetically-defined drug resistance” (Bioorg Med Chem Lett, 2017).
pIC50, pKd: −log10 of the molar value.

Legend:
NCI-H2228 = experiment: Cytotoxicity against human NCI-H2228 cells measured after 8 days; assay type: functional, cell-based; conditions: NCI-H2228, 192 h
NCI-H1299 = experiment: Cytotoxicity against human NCI-H1299 cells measured after 8 days; assay type: functional, cell-based; conditions: NCI-H1299, 192 h
SR = experiment: Cytotoxicity against human SR cells measured after 8 days; assay type: functional, cell-based; conditions: 192 h
[1] = Cytotoxicity against human WSU-FSCCL cells measured after 8 days; assay type: functional, cell-based; conditions: 192 h
MFM-223 = experiment: Cytotoxicity against human MFM-223 cells measured after 8 days; assay type: functional, cell-based; conditions: MFM-223, 192 h
COLO 320 = experiment: Cytotoxicity against human COLO 320 cells measured after 8 days; assay type: functional, cell-based; conditions: COLO 320, 192 h
Hs 294T = experiment: Cytotoxicity against human Hs294T cells measured after 8 days; assay type: functional, cell-based; conditions: 192 h
DV-90 = experiment: Cytotoxicity against human DV-90 cells measured after 8 days; assay type: functional, cell-based; conditions: DV-90, 192 h
[2] = Cytotoxicity against human SNU-719 cells measured after 8 days; assay type: functional, cell-based; conditions: SNU-719, 192 h
[3] = target: Bromodomain testis-specific protein (Homo sapiens, UniProt Q58F21); experiment: Binding affinity to human partial length BRDT bromodomain 1 (N21 to E137 residues) expressed in bacterial expression system by BROMOscan assay
[4] = target: T1, Bromodomain and PHD finger-containing protein 3 (Homo sapiens, UniProt Q9ULD4); experiment: Binding affinity to human partial length BRPF3 (E588 to G701 residues) expressed in bacterial expression system by BROMOscan assay
T1 sequence (Q9ULD4 whole entry): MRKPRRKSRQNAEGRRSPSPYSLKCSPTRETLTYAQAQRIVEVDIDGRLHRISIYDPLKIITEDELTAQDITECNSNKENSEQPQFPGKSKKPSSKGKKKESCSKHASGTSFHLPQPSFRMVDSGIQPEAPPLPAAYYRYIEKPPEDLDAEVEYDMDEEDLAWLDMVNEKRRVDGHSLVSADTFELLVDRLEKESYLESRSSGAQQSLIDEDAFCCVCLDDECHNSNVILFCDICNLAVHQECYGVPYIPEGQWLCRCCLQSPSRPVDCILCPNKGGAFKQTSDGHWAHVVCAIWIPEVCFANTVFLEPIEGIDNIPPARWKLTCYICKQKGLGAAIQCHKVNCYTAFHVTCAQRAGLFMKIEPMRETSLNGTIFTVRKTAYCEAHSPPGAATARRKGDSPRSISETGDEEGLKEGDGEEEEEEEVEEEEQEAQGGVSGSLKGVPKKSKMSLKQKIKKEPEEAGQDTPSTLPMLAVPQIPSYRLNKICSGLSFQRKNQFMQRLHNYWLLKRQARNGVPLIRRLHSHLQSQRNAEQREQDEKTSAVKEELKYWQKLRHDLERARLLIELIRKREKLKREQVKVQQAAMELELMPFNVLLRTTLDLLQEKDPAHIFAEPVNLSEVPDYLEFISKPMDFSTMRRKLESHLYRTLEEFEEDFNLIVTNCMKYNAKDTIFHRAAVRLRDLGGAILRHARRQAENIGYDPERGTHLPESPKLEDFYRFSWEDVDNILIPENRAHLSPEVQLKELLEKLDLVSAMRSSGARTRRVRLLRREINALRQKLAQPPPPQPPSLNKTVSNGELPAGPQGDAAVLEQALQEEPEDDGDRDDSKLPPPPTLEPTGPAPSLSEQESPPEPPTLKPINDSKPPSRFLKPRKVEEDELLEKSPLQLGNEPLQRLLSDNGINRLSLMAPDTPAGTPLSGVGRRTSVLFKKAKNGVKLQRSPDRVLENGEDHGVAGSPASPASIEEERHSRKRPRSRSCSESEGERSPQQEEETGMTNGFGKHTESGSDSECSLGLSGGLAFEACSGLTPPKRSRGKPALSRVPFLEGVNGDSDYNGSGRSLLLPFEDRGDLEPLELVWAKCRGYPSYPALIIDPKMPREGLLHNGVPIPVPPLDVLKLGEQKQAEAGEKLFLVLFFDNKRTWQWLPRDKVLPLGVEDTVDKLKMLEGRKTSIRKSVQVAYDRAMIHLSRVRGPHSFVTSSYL

[5] = target: Bromodomain and WD repeat-containing protein 1 (Homo sapiens, UniProt Q9NSI6); experiment: Binding affinity to human partial length WDR9 bromodomain 2 (A1310 to E1430 residues) expressed in bacterial expression system by BROMOscan assay
[6] = target: Aurora kinase B (Homo sapiens) (UniProt Q96GD4); experiment: Inhibition of Aurora B (unknown origin) at 1 uM relative to control
[7] = target: Macrophage colony-stimulating factor 1 receptor (Homo sapiens) (UniProt P07333); experiment: Inhibition of CSF1R (unknown origin) at 1 uM relative to control
[8] = target: Mitogen-activated protein kinase kinase kinase kinase 4 (Homo sapiens) (UniProt O95819); experiment: Inhibition of MAP4K4 (unknown origin) at 1 uM relative to control
[9] = target: D(2) dopamine receptor (Homo sapiens) (UniProt P14416); experiment: Displacement of [3H]7-OH-DPAT from human recombinant dopamine D2S receptor at 10 uM after 60 mins by scintillation counting analysis relative to control
[10] = target: Muscarinic acetylcholine receptor M3 (Homo sapiens) (UniProt P20309); experiment: Displacement of [3H]4-DAMP from human recombinant M3 receptor at 10 uM after 60 mins by scintillation counting analysis relative to control
[11] = target: 5-hydroxytryptamine receptor 2A (Homo sapiens) (UniProt P28223); experiment: Displacement of [3H]ketanserin human recombinant 5-HT2A receptor at 10 uM after 60 mins by scintillation counting analysis relative to control
Sequence of 5-hydroxytryptamine receptor 2A (Homo sapiens) (P28223 whole entry): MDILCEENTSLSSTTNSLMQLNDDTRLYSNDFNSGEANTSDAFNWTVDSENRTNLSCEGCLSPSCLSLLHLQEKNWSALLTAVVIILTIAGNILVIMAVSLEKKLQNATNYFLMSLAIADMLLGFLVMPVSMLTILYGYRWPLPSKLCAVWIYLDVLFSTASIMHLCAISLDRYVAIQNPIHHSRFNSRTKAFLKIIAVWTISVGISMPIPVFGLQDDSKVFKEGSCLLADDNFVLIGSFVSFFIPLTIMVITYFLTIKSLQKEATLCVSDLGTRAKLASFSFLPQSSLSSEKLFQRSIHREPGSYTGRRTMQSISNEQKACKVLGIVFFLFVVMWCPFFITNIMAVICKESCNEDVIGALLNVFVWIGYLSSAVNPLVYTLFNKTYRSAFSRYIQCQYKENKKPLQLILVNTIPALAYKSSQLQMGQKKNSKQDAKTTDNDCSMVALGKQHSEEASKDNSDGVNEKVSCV

Sequence of Muscarinic acetylcholine receptor M3 (Homo sapiens) (P20309 whole entry, looked up): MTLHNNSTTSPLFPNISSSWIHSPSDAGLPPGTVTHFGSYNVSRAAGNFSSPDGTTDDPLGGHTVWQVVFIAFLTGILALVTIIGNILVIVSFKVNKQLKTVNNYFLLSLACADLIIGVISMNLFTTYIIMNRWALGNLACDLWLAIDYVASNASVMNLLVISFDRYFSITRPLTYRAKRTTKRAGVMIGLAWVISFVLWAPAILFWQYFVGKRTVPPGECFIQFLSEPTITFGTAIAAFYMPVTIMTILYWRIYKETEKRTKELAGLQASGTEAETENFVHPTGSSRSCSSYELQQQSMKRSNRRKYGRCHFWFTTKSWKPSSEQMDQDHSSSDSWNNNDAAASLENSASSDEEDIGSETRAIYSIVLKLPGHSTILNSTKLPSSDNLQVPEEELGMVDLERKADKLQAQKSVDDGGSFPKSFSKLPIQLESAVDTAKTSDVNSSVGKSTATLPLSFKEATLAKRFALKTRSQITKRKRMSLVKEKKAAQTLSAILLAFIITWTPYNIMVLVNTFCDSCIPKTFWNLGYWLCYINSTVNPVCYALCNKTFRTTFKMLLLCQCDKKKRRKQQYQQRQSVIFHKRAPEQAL
Sequence of Mitogen-activated protein kinase kinase kinase kinase 4 (Homo sapiens) (O95819 2-1239 limits assumed): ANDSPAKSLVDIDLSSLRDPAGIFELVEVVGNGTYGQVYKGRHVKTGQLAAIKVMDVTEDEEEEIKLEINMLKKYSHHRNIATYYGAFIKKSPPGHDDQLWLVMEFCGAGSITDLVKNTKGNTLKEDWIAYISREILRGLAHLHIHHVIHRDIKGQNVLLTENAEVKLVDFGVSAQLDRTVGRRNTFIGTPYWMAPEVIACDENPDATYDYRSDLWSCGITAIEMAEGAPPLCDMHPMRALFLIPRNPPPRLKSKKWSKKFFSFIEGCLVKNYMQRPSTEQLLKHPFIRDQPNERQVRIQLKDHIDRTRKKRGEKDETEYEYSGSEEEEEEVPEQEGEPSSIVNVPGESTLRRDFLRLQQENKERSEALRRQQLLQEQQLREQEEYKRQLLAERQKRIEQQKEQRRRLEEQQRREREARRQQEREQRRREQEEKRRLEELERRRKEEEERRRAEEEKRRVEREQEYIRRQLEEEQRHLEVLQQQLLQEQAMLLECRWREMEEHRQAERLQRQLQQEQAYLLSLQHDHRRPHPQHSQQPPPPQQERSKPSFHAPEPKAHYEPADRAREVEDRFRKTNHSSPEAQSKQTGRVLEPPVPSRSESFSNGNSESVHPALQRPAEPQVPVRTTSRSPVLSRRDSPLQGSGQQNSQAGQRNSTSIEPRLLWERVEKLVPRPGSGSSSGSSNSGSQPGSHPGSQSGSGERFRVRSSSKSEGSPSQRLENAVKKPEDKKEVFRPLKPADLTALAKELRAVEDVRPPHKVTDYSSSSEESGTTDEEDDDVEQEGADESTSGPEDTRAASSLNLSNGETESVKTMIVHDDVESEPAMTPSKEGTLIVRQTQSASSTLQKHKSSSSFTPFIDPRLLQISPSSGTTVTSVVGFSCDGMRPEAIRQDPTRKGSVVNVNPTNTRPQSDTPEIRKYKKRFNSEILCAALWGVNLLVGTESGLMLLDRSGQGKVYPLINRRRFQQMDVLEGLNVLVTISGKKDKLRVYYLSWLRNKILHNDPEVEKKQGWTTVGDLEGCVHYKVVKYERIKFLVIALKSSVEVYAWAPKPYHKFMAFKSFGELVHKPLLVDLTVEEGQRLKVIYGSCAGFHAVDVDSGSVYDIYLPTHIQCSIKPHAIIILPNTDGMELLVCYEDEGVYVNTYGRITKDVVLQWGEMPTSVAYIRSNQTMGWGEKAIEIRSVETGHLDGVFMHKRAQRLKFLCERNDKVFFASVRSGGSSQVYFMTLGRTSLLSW
Sequence of Macrophage colony-stimulating factor 1 receptor (Homo sapiens) (P07333 whole entry): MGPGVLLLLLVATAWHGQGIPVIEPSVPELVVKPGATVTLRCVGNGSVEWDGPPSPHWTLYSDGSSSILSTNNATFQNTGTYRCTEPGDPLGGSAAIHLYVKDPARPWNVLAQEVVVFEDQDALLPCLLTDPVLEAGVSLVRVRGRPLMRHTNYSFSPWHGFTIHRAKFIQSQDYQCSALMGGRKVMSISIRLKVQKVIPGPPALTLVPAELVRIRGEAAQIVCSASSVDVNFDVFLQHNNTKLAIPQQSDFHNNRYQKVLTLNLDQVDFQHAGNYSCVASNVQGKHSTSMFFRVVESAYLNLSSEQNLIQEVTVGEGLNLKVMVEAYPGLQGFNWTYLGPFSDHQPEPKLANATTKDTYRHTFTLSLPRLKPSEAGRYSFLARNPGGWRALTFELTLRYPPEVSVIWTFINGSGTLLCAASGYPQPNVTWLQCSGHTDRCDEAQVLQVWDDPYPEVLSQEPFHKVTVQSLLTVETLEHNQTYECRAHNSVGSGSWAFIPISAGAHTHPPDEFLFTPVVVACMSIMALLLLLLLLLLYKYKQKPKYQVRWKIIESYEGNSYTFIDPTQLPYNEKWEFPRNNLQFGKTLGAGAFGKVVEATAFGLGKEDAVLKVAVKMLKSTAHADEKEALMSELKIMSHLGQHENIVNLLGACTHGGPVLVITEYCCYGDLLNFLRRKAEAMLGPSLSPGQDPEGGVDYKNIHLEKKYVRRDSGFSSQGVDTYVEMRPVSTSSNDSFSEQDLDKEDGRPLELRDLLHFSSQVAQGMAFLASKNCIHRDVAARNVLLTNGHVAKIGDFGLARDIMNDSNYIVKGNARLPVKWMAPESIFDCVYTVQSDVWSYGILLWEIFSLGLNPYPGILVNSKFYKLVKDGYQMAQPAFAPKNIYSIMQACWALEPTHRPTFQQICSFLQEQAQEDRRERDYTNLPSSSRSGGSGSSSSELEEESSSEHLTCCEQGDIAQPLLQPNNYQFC
Sequence of Aurora kinase B (Homo sapiens) (Q96GD4 whole entry): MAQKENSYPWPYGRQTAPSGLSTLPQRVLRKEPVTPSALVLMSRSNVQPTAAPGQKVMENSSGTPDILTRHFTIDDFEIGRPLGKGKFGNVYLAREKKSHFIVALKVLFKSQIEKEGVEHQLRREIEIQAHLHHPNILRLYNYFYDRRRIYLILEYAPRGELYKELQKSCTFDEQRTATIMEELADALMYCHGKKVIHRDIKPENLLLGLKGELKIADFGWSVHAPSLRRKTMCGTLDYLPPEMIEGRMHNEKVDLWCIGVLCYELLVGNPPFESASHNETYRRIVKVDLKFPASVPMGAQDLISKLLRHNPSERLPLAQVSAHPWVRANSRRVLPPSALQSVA
Sequence of D(2) dopamine receptor (Homo sapiens) (P14416 whole entry): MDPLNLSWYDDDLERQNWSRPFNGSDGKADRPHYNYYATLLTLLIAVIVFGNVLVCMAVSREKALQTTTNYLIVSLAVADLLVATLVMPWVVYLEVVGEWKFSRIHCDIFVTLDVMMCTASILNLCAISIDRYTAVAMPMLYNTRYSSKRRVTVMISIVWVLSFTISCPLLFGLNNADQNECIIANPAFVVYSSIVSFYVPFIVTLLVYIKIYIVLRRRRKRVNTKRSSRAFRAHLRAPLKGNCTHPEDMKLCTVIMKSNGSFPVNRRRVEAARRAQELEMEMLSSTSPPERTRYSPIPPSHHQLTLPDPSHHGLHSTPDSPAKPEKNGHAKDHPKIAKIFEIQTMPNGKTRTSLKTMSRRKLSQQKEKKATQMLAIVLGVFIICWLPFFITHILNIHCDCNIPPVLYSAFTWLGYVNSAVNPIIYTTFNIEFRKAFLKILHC

Structure (SMILES)	pIC50 (NCI-H2228)	pIC50 (NCI-H1299)	pIC50 (SR)	pIC50 [1]	pIC50 (MFM-223)	pIC50 (COLO 320)	pIC50 (Hs 294T)	pIC50 (DV-90)	pIC50 [2]	pKd [3]	pKd [4]	pKd [5]	inhibition [6] [%]	inhibition [7] [%]	inhibition [8] [%]	Activity [9] [%]	Activity [10] [%]	Activity [11] [%]
C/C=C/Cn1cc(-c2ccc(C(=O)N3CCOCC3)cc2)c2cc[nH]c2c1=O	4.70	4.70	4.70	4.70	4.70	4.70	4.70	4.70	4.70	5.60	< 5.00	4.57	-0.4	2.8	4.8	-3	-13	11
C/C=C/Cn1cc(-c2ccc(C(C)(C)O)cc2OC)c2cc[nH]c2c1=O	4.70	4.70	4.70	4.87	4.94	4.70	4.70	4.70	4.70	6.08	< 5.00	< 5.00	-0.5	6.5	10.5	6	6	0
C/C=C/Cn1cc(-c2cc(OC)c(C(=O)N3CCOCC3)cc2OC)c2cc(C)[nH]c2c1=O	5.70	5.70	5.70	6.09	5.84	5.70	5.70	5.70	5.70	< 5.00	< 5.00	< 5.30	4.5	6.5	0	13	3	15
C/C=C/Cn1cc(-c2cc(OC)c(C(C)(C)O)cc2OC)c2cc(C)[nH]c2c1=O	–	–	–	–	–	–	–	–	–	5.68	< 5.00	< 5.00	–	–	–	–	–	–
